# Results taken from patent US7417045B2, “Heterocyclic substituted pyridine or phenyl compounds with CXCR3 antagonist activity” (Schering Corporation, priority 2005, dated 2008).
# pIC50: −log10 of the molar value.
# Molecular target: T1, human CXCR3 (N-delta 4) (Homo sapiens, UniProt P49682)
# T1 construct: CD8 leader (N); Flag tag; expressed in transfected cells; membranes
# T1 sequence (P49682 5-368 limits assumed): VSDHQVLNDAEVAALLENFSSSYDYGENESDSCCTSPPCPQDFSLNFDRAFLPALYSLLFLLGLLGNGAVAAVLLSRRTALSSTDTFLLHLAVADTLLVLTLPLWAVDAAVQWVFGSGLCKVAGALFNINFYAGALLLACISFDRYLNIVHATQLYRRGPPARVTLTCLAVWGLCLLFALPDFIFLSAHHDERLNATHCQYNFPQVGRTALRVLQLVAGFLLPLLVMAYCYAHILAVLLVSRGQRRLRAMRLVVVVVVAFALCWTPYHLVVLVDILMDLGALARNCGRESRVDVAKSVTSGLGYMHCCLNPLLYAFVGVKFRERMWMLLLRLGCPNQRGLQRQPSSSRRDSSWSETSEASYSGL
# Test: Human CXCR3 (N-delta 4) Scintillation Proximity Assay (SPA), [125I] IP-10 binding
# Settings: IC50 rating; [125I] IP-10 displacement, Ba/F3-hCXCR3 (N-delta 4) membranes
# Text: The inventive compounds can readily be evaluated to determine activity at The CXCR3 receptors by known methods, such as, for example, Development of Human CXCR3 (N-delta 4) Binding Assay.
# Cloning and Expression of Human CXCR3 (N-Delta 4):
# The DNA encoding human CXCR3 was cloned by PCR using human genomic DNA (Promega, Madison, Wis.) as a template. The PCR primers were designed based on the published sequence of human orphan receptor GPR9 (1) with incorporated restriction sites, a Kozak consensus sequence, CD8 leader and Flag tag. The PCR product was subcloned into the mammalian expression vector pME18Sneo, a derivative of the SR-alpha expression vector (designated as pME18Sneo-hCXCR3 (N-delta 4).
# IL-3-dependent mouse pro-B cells Ba/F3 were transfected by electroporation in 0.4 ml Dulbecco's PBS containing 4×10^6 cells with 20 μg of pME18Sneo-hCXCR3 (N-delta 4) plasmid DNA. Cells were pulsed at 400 Volts, 100 OHMs, 960 μFd. The transfected cells were under selection with 1 mg/ml G418 (Life Technologies, Gaithersburg, Md.). G418-resistant Ba/F3 clones were screened for CXCR3 expression by specific binding of [^125I] IP-10 (NEN Life Science Products, Boston, Mass.).
# Preparation of Ba/F3-hCXCR3 (N-Delta 4) Membranes
# Ba/F3 cells expressing human CXCR3 (N-delta 4) were pelleted and resuspended in the lysis buffer containing 10 mM HEPES, pH 7.5 and Complete® protease inhibitors (1 tablet per 100 ml) (Boehringer Mannheim, Indianapolis, Ind.) at a cell density of 20×10^6 cells per ml. After 5 minutes incubation on ice, cells were transferred to 4639 cell disruption bomb (Parr Instrument, Moline, Ill.) and applied with 1,500 psi of nitrogen for 30 minutes on ice. Large cellular debris was removed by centrifugation at 1,000× g. Cell membrane in the supernatant was sedimented at 100,000× g. The membrane was resuspended in the lysis buffer supplemented with 10% sucrose and stored at −80° C. Total protein concentration of the membrane was determined by BCA method from Pierce (Rockford, Ill.).
# Human CXCR3 (N-Delta 4) Scintillation Proximity Assay (SPA)
# For each assay point, 2 μg of membrane was preincubated for 1 hr with 300 μg wheat germ agglutinin (WGA) coated SPA beads (Amersham, Arlington Heights, Ill.) in the binding buffer (50 mM HEPES, 1 mM CaCl2, 5 mM MgCl2, 125 mM NaCl, 0.002% NaN3, 1.0% BSA) at room temperature. The beads were spun down, washed once, resuspended in the binding buffer and transferred to a 96-well Isoplate (Wallac, Gaithersburg, Md.). 25 pM of [^125I] IP-10 with tested compounds in a series of titration were added to start the reaction. After 3 hr reaction at room temperature, the amount of [^125I] IP-10 bound to the SPA beads was determined with a Wallac 1450 Microbeta counter.
row,Structure (SMILES),pIC50
1,CC[C@H]1CN(c2ncc(-c3ncc[nH]3)cc2Cl)CCN1C1CCN(CC(=O)c2ccc(Cl)cc2)CC1 [Compound 164],< 7.00
2,CC[C@H]1CN(c2ncc(-c3ncc[nH]3)cc2Cl)CCN1C1CCN(C(=O)c2ccc(C#CC(C)(C)NS(C)(=O)=O)cc2)CC1 [Compound 171],< 7.00
3,CC[C@H]1CN(c2ncc(C3=NC(C)CN3)cc2Cl)CCN1C1CCN(C(=O)c2ccc(Cl)cc2)CC1 (some centres unmarked) [Compound 72],> 7.60
4,CC[C@H]1CN(c2ncc(-c3ncc[nH]3)cc2Cl)CCN1C1CCN(C(=O)c2ccc(-n3cccn3)cc2)CC1 [Compound 102],7.00 to 7.60
5,CC[C@H]1CN(c2ncc(C3=NCCN3)cc2Cl)CCN1C1CCN(C(C(=O)OC)c2ccc(Cl)cc2)CC1 (some centres unmarked) [Compound 63],> 7.60
6,CC[C@H]1CN(c2ncc(-c3nnc(CO)o3)cc2Cl)CCN1C1CCN(Cc2ccc(Cl)cc2F)CC1 [Compound 106],7.00 to 7.60
7,CC[C@H]1CN(c2ncc(-c3nnc(C)o3)cc2Cl)CCN1C1CCN(Cc2ccc(Cl)cc2F)CC1 [Compound 70],> 7.60
8,CC[C@H]1CN(c2ncc(C3=NCCN3)cc2Cl)CCN1C1CCN(Cc2ccc(Cl)cc2C(=O)OC)CC1 [Compound 61],> 7.60
9,CC[C@H]1CN(c2ncc(-c3ncc[nH]3)cc2Cl)CCN1C1CCN(Cc2ccc(C(=O)OC)cc2)CC1 [Compound 16],> 7.60
10,CC[C@H]1CN(c2ncc(-c3nnc(N)o3)cc2C)[C@H](C)CN1C1CCN(Cc2ccc(OC(F)(F)F)cc2)CC1 [Compound 174],> 7.60
11,CC[C@H]1CN(c2ncc(C3=NCCN3)cc2Cl)CCN1C1CCN(C(=O)c2ccc(Cl)nc2N)CC1 [Compound 42],> 7.60
12,CC[C@H]1CN(c2ncc(-c3ncc[nH]3)cc2Cl)CCN1C1CCN(C(=O)c2ccc(Cl)nc2N)CC1 [Compound 46],> 7.60
13,CC[C@H]1CN(c2ncc(C3=NCCN3)cc2Cl)CCN1C1CCN(C(=O)c2ccc(Cl)cc2C(N)=NO)CC1 [Compound 93],> 7.60
14,CC[C@H]1CN(c2ncc(C3=NCCN3)cc2Cl)CCN1C1CCN(Cc2ccc(C3CC3C(C)(C)O)cc2)CC1 (some centres unmarked) [Compound 152],< 7.00
15,CC[C@H]1CN(c2ncc(-c3ncc[nH]3)cc2Cl)CCN1C1CCN(Cc2ccc(Cl)cc2-c2nnn[nH]2)CC1 [Compound 52],> 7.60
16,CC[C@H]1CN(c2ncc(-c3ncc[nH]3)cc2Cl)CCN1C1CCN([C@@H](C)c2ccc(Cl)cc2)CC1 [Compound 30],> 7.60
17,CC[C@H]1CN(c2ncc(-c3ncc[nH]3)cc2Cl)CCN1C1CCN([C@@H](C(=O)NC2CC2)c2ccc(Cl)cc2)CC1 [Compound 36],> 7.60
18,CC[C@H]1CN(c2ncc(-c3nccn3C(c3ccccc3)(c3ccccc3)c3ccccc3)cc2Cl)CCN1C1CCN(Cc2ccc(Cl)cc2F)CC1 [Compound 145],< 7.00
19,Fc1cc(Cl)ccc1CN1CCC(N2CCN(c3ncc(-c4ncc[nH]4)cc3Cl)CC2C2CC2)CC1 (centres unmarked) [Compound 77],> 7.60
20,CC[C@H]1CN(c2ncc(-c3ncc[nH]3)cc2Cl)CCN1C1CCN(Cc2ccc(Cl)cc2C#N)CC1 [Compound 33],> 7.60
21,CC[C@H]1CN(c2ncc(-c3nnc(C(C)(C)OC(C)=O)o3)cc2Cl)CCN1C1CCN(Cc2ccc(Cl)cc2F)CC1 [Compound 141],< 7.00
22,CC[C@H]1CN(c2ncc(-c3ncc[nH]3)cc2Cl)CCN1C1CCN(C(=O)c2ccc(-n3cncn3)cc2)CC1 [Compound 135],< 7.00
23,CC[C@H]1CN(c2ncc(-c3ncc[nH]3)cc2Cl)CCN1C1CCN(CCCCc2ccc(Cl)cc2)CC1 [Compound 103],7.00 to 7.60
24,CC[C@H]1CN(c2c(F)cc(-c3ncc[nH]3)cc2C(F)(F)F)CCN1C1CCN(Cc2ccc(Cl)cc2F)CC1 [Compound 59],> 7.60
25,CC[C@H]1CN(c2ncc(-c3ncc[nH]3)cc2Cl)CCN1C1CCN(CCC(=O)c2ccc(Cl)cc2)CC1 [Compound 95],> 7.60

row,Structure (SMILES),pIC50
1,CC[C@H]1CN(c2ncc(C3=NCCN3)cc2Cl)CCN1C1CCN(C(=O)c2ccc(Cl)cc2C#N)CC1 [Compound 82],> 7.60
2,CC[C@H]1CN(c2ncc(C3=NCCN3)cc2Cl)CCN1C1CCN(Cc2ccc(Cl)cc2C(=O)NCCO)CC1 [Compound 94],> 7.60
3,CC[C@H]1CN(c2ncc(-c3nnc(CO)o3)cc2Cl)CCN1C1CCN(C(CO)c2ccc(Cl)cc2)CC1 (some centres unmarked) [Compound 39],> 7.60
4,CC[C@H]1CN(c2ncc(-c3ncc[nH]3)cc2Cl)CCN1C1CCN(Cc2ccc(-c3ccccc3)cc2)CC1 [Compound 37],> 7.60
5,CCOC(CNC(=N)c1cc(Cl)ccc1CN1CCC(N2CCN(c3ncc(-c4ncc[nH]4)cc3Cl)C[C@@H]2CC)CC1)OCC [Compound 21],> 7.60
6,CC[C@H]1CN(c2ncc(-c3nnc[nH]3)cc2Cl)CCN1C1CCN(Cc2ccc(Cl)cc2F)CC1 [Compound 69],> 7.60
7,CC[C@H]1CN(c2ncc(-c3ncc[nH]3)cc2Cl)CCN1C1CCN(C(=O)c2ccc(N3CCCC3=O)cc2)CC1 [Compound 173],< 7.00
8,CC[C@H]1CN(c2ncc(-c3ncc[nH]3)cc2Cl)CCN1C1CCN(Cc2ccc(Cl)cc2-c2ncon2)CC1 [Compound 48],> 7.60
9,CC[C@H]1CN(c2ncc(-c3ncc[nH]3)cc2Cl)CCN1C1CCN(C(=O)c2ccc(OC(F)(F)F)cc2)CC1 [Compound 126],7.00 to 7.60
10,CC[C@H]1CN(c2ncc(-c3ncc[nH]3)cc2Cl)CCN1C1CCN(Cc2ccc(-n3cncn3)cc2)CC1 [Compound 76],> 7.60
11,C[C@H]1CN(c2ncc(-c3nc4ccccc4[nH]3)cc2Cl)CCN1C1CCN(Cc2ccc(Cl)cc2)CC1 [Compound 110],7.00 to 7.60
12,CC[C@H]1CN(c2ncc(-c3ncc[nH]3)cc2Cl)CCN1C1CCN([C@H](C)c2ccc(Cl)cc2)CC1 [Compound 5],> 7.60
13,C[C@H]1CN(c2ncc(C3=NCCN3)cc2Cl)CCN1C1CCN(Cc2ccc(Cl)cc2)CC1 [Compound 65],> 7.60
14,CC[C@H]1CN(c2ncc(-c3ncc[nH]3)cc2Cl)CCN1C1(C)CCN(Cc2ccc(Cl)cc2C(=O)NC)CC1 [Compound 130],7.00 to 7.60
15,CC[C@H]1CN(c2ncc(C3=NCCN3)cc2Cl)CCN1C1CCN(Cc2ccc(F)cc2)CC1 [Compound 11],> 7.60
16,CC[C@H]1CN(c2ncc(-c3ncc[nH]3)cc2Cl)CCN1C1CCN(Cc2c(F)cc(F)cc2F)CC1 [Compound 49],> 7.60
17,CC[C@H]1CN(c2ncc(-c3ncc[nH]3)cc2Cl)CCN1C1CCN(C(=O)c2ccc(-n3ccnc3)cc2)CC1 [Compound 156],< 7.00
18,CC[C@H]1CN(c2ccc(-c3ncc[nH]3)cc2Br)CCN1C1CCN(Cc2ccc(Cl)cc2F)CC1 [Compound 20],> 7.60
19,CC[C@H]1CN(c2ncc(-c3cnco3)cc2Cl)CCN1C1CCN(Cc2ccc(Cl)cc2)CC1 [Compound 108],7.00 to 7.60
20,CC[C@H]1CN(c2ncc(-c3nccn3CCC(=O)c3ccc(Cl)cc3)cc2Cl)CCN1C1CCN(CCC(=O)c2ccc(Cl)cc2)CC1 [Compound 165],< 7.00
21,CC[C@H]1CN(c2ncc(-c3ncc[nH]3)cc2Cl)CCN1C1CCN(Cc2ccc(Cl)cc2C(=O)NC)CC1 [Compound 53],> 7.60
22,CC[C@H]1CN(c2ncc(-c3ncc[nH]3)cc2Cl)CCN1C1CCN(C(CO)c2ccc(Cl)cc2)CC1 (some centres unmarked) [Compound 18],> 7.60
23,CC[C@H]1CN(c2ncc(-c3ncc[nH]3)cc2Cl)CCN1C1CCN(C(=O)c2ccc(-n3c(C)ccc3C)cc2)CC1 [Compound 136],< 7.00
24,CC[C@H]1CN(c2ncc(-c3cnc(N)s3)cc2Cl)CCN1C1CCN(C(=O)c2ccc(Cl)cc2)CC1 [Compound 167],< 7.00
25,CC[C@H]1CN(c2ncc(-c3ncc[nH]3)cc2Cl)CCN1C1CCN(C(=O)c2ccc(-c3cnco3)cc2)CC1 [Compound 117],7.00 to 7.60
